# Results as given in US7261889B2, “Local anesthetic methods and kits” (Novalar Pharmaceuticals, Inc., priority 2000, dated 2007).
# “Also recorded” adds a separate entry of the source. Where a name gives a salt, the structure may show the parent alone.
# Legend:
# [1] = test system: local anesthesia from 2% polocaine (mepivacaine hydrochloride) with levonordefrin in healthy, male human subjects; experiment: Human subjects study of local anesthesia reversal by LARA versus saline vehicle (bilateral injections); format: in vivo; conditions: three subjects; 0.05 mg/ml phentolamine-mesylate, 1.6 ml (0.08 mg)
# Protocol: An injection of the physiological saline vehicle (without phentolamine-mesylate) served as the control. […] This was followed by injection of the phentolamine-mesylate containing local anesthetic reversal agent (LARA) into one side of the oral cavity, and injection of the saline vehicle (control) solution into the opposite side of the oral cavity. The time to reversal of the local anesthetic effect on both sides was then recorded to determine whether there is a difference between the two sides.
# The local anesthetic used was 2% polocaine (mepivacaine hydrochloride) with levonordefrin (1:20,000=0.05 mg/ml) (levonordefrin injection, USP) (Astra USA, Inc., Westborough, Mass. 01581). Levonordefrin is a sympathomimetic amine with a pharmacological profile similar to that of epinephrine, but with a lower potency.
# Three healthy, male human subjects, age 34-50, volunteered to have local anesthetic injected in the mouth bilaterally under the lip in an easily repeatable location. The exact time of each injection was recorded. The position chosen was above (apical) the prominence of the root of the upper cuspid teeth. This is a common site selected to numb the cuspids, lateral incisors and upper lip. The volume of the local anesthetic injected was 1.7+0.1 ml on each side of the mouth. […]
# [2] = test system: patients pretreated with lignocaine admixed with epinephrine; conditions: 0.5-1.5 mg; '714 patent Example 1, Table 1; cited from earlier work
# patients = conditions: systemic doses; usually in association with marked hypotensive episodes; cited from earlier work
Structure (SMILES),local anesthesia reversal compared to saline side (in words) [1],side-effects [1],duration of anesthesia [2],side effects reported following administration (patients)
"Cc1ccc(N(CC2=NCCN2)c2cccc(O)c2)cc1 [phentolamine-mesylate, phentolamine mesylate]",highly effective anesthesia reversal,no side-effects of any kind were noted; also recorded: without any side-effects whatsoever,–,–
Cc1ccc(N(CC2=NCCN2)c2cccc(O)c2)cc1 [phentolamine],–,–,reduction in the duration of anesthesia with increasing amounts,"Myocardial infarction, cerebrovascular spasm, and cerebrovascular occlusion have been reported"
